Data published in patent US8835464B2, “Triazole compounds that modulate HSP90 activity” (Synta Pharmaceuticals Corp., priority 2006, dated 2014).
Structures can show the parent of a compound that is named as a salt.

Test system: Hsp90
Assay: IC50 of compounds of the invention, Example B Method 2 (Tables 6-9)
Type: cell-based, human
Conditions: Table 7; Her2 degradation / inhibition of Hsp90; Method 2: MV-4-11 cells, 72 hours, Cell Counting Kit-8; read-out: IC50

| IC50 [nM] | Compound |
| --- | --- |
| 1560 | CC(C)C(=O)Nc1nnc(-c2cc(C(C)C)c(O)cc2O)n1-c1ccc2c(ccn2C)c1 [Compound 14a, N-(5-(2,4-dihydroxy-5-isopropylphenyl)-4-(1-methyl-1H-indol-5-yl)-4H-1,2,4-triazol-3-yl)isobutyramide] |
| 1040 | CC(C)c1cc(-c2nnc(NC(=O)c3ccco3)n2-c2ccc3c(ccn3C)c2)c(O)cc1O [Compound 15a, N-(5-(2,4-dihydroxy-5-isopropylphenyl)-4-(1-methyl-1H-indol-5-yl)-4H-1,2,4-triazol-3-yl)furan-2-carboxamide] |
| 1460 | CC(C)c1cc(-c2nnc(NC(=O)Cc3ccccc3)n2-c2ccc3c(ccn3C)c2)c(O)cc1O [Compound 16a, N-(5-(2,4-dihydroxy-5-isopropylphenyl)-4-(1-methyl-1H-indol-5-yl)-4H-1,2,4-triazol-3-yl)-2-phenylacetamide] |
| 1680 | CC(C)c1cc(-c2nnc(NC(=O)c3ccc(F)c(F)c3)n2-c2ccc3c(ccn3C)c2)c(O)cc1O [Compound 17a, N-(5-(2,4-dihydroxy-5-isopropylphenyl)-4-(1-methyl-1H-indol-5-yl)-4H-1,2,4-triazol-3-yl)-3,4-difluorobenzamide] |
| 3000 | CC(C)c1cc(-c2nnc(NC(=O)C(F)(F)F)n2-c2ccc3c(ccn3C)c2)c(O)cc1O [Compound 18a, N-(5-(2,4-dihydroxy-5-isopropylphenyl)-4-(1-methyl-1H-indol-5-yl)-4H-1,2,4-triazol-3-yl)-2,2,2-trifluoroacetamide] |
| 2740 | CC(C)c1cc(-c2nnc(NC(=O)COc3ccc(Cl)cc3)n2-c2ccc3c(ccn3C)c2)c(O)cc1O [Compound 19a, 2-(4-chlorophenoxy)-N-(5-(2,4-dihydroxy-5-isopropylphenyl)-4-(1-methyl-1H-indol-5-yl)-4H-1,2,4-triazol-3-yl)acetamide] |
| 5920 | CC(C)c1cc(-c2nnc(NC(=O)C3CCCC3)n2-c2ccc3c(ccn3C)c2)c(O)cc1O [Compound 20a, N-(5-(2,4-dihydroxy-5-isopropylphenyl)-4-(1-methyl-1H-indol-5-yl)-4H-1,2,4-triazol-3-yl)cyclopentanecarboxamide] |

Same assay, conditions: Table 8; Her2 degradation / inhibition of Hsp90; Method 2: MV-4-11 cells, 72 hours, Cell Counting Kit-8; read-out: IC50

| IC50 [nM] | Compound |
| --- | --- |
| 27 | CC(C)c1cc(-c2nn(COC(=O)C(N)Cc3ccccc3)c(=O)n2-c2ccc3c(ccn3C)c2)c(O)cc1O (stereo not shown) [Compound 13b, (3-(2,4-dihydroxy-5-isopropylphenyl)-4-(1-methyl-1H-indol-5-yl)-5-oxo-4,5-dihydro-1H-1,2,4-triazol-1-yl)methyl 2-amino-3-phenylpropanoate] |
| 79 | CC(C)c1cc(-c2nn(C(=O)CN)c(=O)n2-c2ccc3c(ccn3C)c2)c(OC(=O)CN)cc1OC(=O)CN [Compound 15b, 4-(1-(2-aminoacetyl)-4-(1-methyl-1H-indol-5-yl)-5-oxo-4,5-dihydro-1H-1,2,4-triazol-3-yl)-6-isopropyl-1,3-phenylene bis(2-aminoacetate) trihydrochloride] |
| 56 | CC(N)C(=O)Oc1cc(OC(=O)C(C)N)c(C(C)C)cc1-c1nn(C(=O)C(C)N)c(=O)n1-c1ccc2c(ccn2C)c1 (stereo not shown) [Compound 16b, 4-(1-(2-aminopropanoyl)-4-(1-methyl-1H-indol-5-yl)-5-oxo-4,5-dihydro-1H-1,2,4-triazol-3-yl)-6-isopropyl-1,3-phenylene bis(2-aminopropanoate) trihydrochloride] |
| 46 | CC(C)c1cc(-c2nn(C(=O)C(N)Cc3ccccc3)c(=O)n2-c2ccc3c(ccn3C)c2)c(OC(=O)C(N)Cc2ccccc2)cc1OC(=O)C(N)Cc1ccccc1 (stereo not shown) [Compound 17b, 4-(1-(2-amino-3-phenylpropanoyl)-4-(1-methyl-1H-indol-5-yl)-5-oxo-4,5-dihydro-1H-1,2,4-triazol-3-yl)-6-isopropyl-1,3-phenylene bis(2-amino-3-phenylpropanoate) trihydrochloride] |
| < 100 | COCCC(=O)Oc1cc(O)c(-c2nnc(OC(=O)CCOC)n2-c2ccc3c(ccn3C)c2)cc1C(C)C [Compound 18b, 5-hydroxy-2-isopropyl-4-(5-(3-methoxypropanoyloxy)-4-(1-methyl-1H-indol-5-yl)-4H-1,2,4-triazol-3-yl)phenyl 3-methoxypropanoate] |

Same assay, conditions: Table 9; Her2 degradation / inhibition of Hsp90; Method 2: MV-4-11 cells, 72 hours, Cell Counting Kit-8; hydrochloride; read-out: IC50 Range

| IC50 [nM] | Compound |
| --- | --- |
| 207 | CC(C)c1cc(-c2nnc(O)n2-c2ccc(N(C)C)c(S(N)(=O)=O)c2)c(O)cc1O [Compound 13d, 5-(3-(2,4-dihydroxy-5-isopropylphenyl)-5-hydroxy-4H-1,2,4-triazol-4-yl)-2-(dimethylamino)benzene sulfonamide hydrochloride] |

Same assay, conditions: Table 9; Her2 degradation / inhibition of Hsp90; Method 2: MV-4-11 cells, 72 hours, Cell Counting Kit-8; read-out: IC50 Range

| IC50 [nM] | Compound |
| --- | --- |
| 336 | CC(C)c1cc(-c2nnc(S)n2-c2cccc(S(N)(=O)=O)c2)c(O)cc1O [Compound 14d, 3-(3-(2,4-dihydroxy-5-isopropylphenyl)-5-mercapto-4H-1,2,4-triazol-4-yl)benzenesulfonamide] |
| 330 | CC(C)c1cc(-c2nnc(O)n2-c2cccc(S(=O)(=O)N3CCOCC3)c2)c(O)cc1O [Compound 15d, 4-(5-hydroxy-4-(3-(morpholinosulfonyl)phenyl)-4H-1,2,4-triazol-3-yl)-6-isopropylbenzene-1,3-diol] |
| 49 | CC(C)c1cc(-c2nnc(O)n2-c2ccc(N3CCOCC3)nc2)c(O)cc1O [Compound 19d, 4-(5-hydroxy-4-(6-morpholinopyridin-3-yl)-4H-1,2,4-triazol-3-yl)-6-isopropylbenzene-1,3-diol] |
| 114 | CC(C)c1cc(-c2nnc(O)n2-c2ccc(OCCN3CCOCC3)nc2)c(O)cc1O [Compound 20d, 4-(5-hydroxy-4-(6-(2-morpholinoethoxy)pyridin-3-yl)-4H-1,2,4-triazol-3-yl)-6-isopropylbenzene-1,3-diol] |

| Compound | IC50 [nM] |
| --- | --- |
| CC(C)c1cc(-c2nnc(O)n2-c2ccc(N(C)S(C)(=O)=O)cc2)c(O)cc1O [Compound 17d, N-(4-(3-(2,4-dihydroxy-5-isopropylphenyl)-5-hydroxy-4H-1,2,4-triazol-4-yl)phenyl)-N-methylmethanesulfonamide] | 85 |

Test system: Her2
Assay: Degradation of Her2 in BT-474 cells, Western blot (Method 1)
Type: cell-based, human
Conditions: 0.5 μM, overnight, positive control
Protocol: Human high-Her2 breast carcinoma BT474 (HTB-20), SK-BR-3 (HTB-30) and MCF-7 breast carcinoma (HTB-22) from American Type Culture Collection, VA, USA were grown in Dulbecco's modified Eagle's medium with 4 mM L-glutamine and antibiotics ([…] penicillin and 100 ug/ml streptomycine; GibcoBRL). To obtain exponential cell growth, cells were trypsinized, counted and seeded at a cell density of 0.5×10^6 cells/ml regularly, every 3 days. All experiments were performed on day 1 after cell passage.
BT-474 cells are treated with 0.5 μM, 2 μM, or 5 μM of 17AAG (a positive control) or 0.5 μM, 2 μM, or 5 μM of a compound of the invention overnight in DMEM medium. After treatment, each cytoplasmic sample is prepared from 1×10^6 cells by incubation of cell lysis buffer (#9803, cell Signaling Technology) on ice for 10 minutes. The resulting supernatant used as the cytosol fractions is dissolved with sample buffer for SDS-PAGE and run on a SDS-PAGE gel, blotted onto a nitrocellulose membrane by using semi-dry transfer. Non-specific binding to nitrocellulose is blocked with 5% skim milk in TBS with 0.5% Tween at room temperature for 1 hour, then probed with anti-Her2/ErB2 mAb (rabbit IgG, #2242, Cell Signaling) and anti-Tubulin (T9026, Sigma) as housekeeping control protein. […]

| Compound | degradation of Her2 |
| --- | --- |
| C=CCNC1=C2C[C@@H](C)C[C@H](OC)[C@H](O)[C@@H](C)/C=C(\C)[C@H](OC(N)=O)[C@@H](OC)/C=C\C=C(/C)C(=O)NC(=CC1=O)C2=O [Compound 17AAG, 17-allylamino-17-demethoxygeldanamycin] | partial degradation |
